This is an account of results in US5189050A, “Fermentation analogs of Virginiamycin M1 to treat panic and anxiety disorder” (Merck & Co., Inc., priority 1991, dated 1993).

One data set has as its target T1, Pancreatic CCK Receptor (Rattus norvegicus, UniProt P30551).
T1 construct: homogenzing a gram of fresh rat pancreas tissue; from tissue; host or cells: fresh rat pancreas membranes
T1 sequence (P30551 1-444): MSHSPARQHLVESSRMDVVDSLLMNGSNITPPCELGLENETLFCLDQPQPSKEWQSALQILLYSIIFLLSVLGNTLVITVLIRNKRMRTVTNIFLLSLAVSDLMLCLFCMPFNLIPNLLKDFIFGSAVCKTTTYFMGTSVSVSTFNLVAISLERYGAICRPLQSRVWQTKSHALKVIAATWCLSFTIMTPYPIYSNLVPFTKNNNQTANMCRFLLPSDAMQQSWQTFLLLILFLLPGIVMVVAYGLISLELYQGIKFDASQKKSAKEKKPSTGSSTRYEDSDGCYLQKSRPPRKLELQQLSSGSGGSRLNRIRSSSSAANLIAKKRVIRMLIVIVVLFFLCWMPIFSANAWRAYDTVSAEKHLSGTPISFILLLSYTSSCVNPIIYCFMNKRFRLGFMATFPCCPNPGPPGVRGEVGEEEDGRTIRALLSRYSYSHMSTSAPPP
The data set can be described thus: Pancreatic cholecystokinin receptor binding (125I-CCK-8, rat pancreas membranes). The note with it: for effect on the 125I-CCK receptor binding assay: added protease inhibitors; for IC50: Pancreatic CCK Receptor Binding, rat pancreas, 125I-CCK-8, 37° C., 30 minutes. The procedure: Pancreatic Cholecystokinin Receptor Binding Assay
Radiolabeled CCK-8 was purchased from New England Nuclear as ^125 I-CCK-8. Receptor binding was performed according to Innis and Snyder Proc. Natl. Acad. Sci., 77, 6917 (1980), with the minor modification of adding the additional protease inhibitors, phenylmethane sulfonyl fluoride (PMSF) and o-phenanthroline, which have no effect on the ^125 I-CCK receptor binding assay. All assays were performed in triplicate. Pancreatic receptor membranes were prepared by homogenzing a gram of fresh rat pancreas tissue in 30 ml TRIS-HCl (50 mM), pH 7.7 using a Brinkman polytron PT10 (Brinkman). The homogenate was washed twice and collected by centrifugation at 48,000× g at 4° C. for 10 minutes. The membranes were resuspended in assay buffer consisting of 5 mM dithiothieitol, 0.1 mM bacitiacin, 5 mM MgCl2 "H2 O, 0.2% heat denatured BSA, 1.2 mM PMSF and 0.5 mM O-phenanthroline at a concentration of 100 ml per gram of pancreas. […] The reaction mixtures were mixed briefly and placed in a 37° C. water bath with gentle shaking for 30 minutes. The reaction mixtures were then diluted with 4 ml of ice-cold TRIS buffer, pH 7.7, containing 1 mg/ml bovine serum albumin and immediately filtered in Watman G F/B filters. The filters were washed with 3×4 ml of the same buffer and the radioactivity associated with the filters was counted in a Beckman 5500 gamma counter. Broths were prepared by adding two volumes of acetone to original broth; supernatants were freeze dried after centrifugation at 1500 g for 10 minutes. The dried samples were then brought up in methanol/H2 O (1:1) and ready for assay.

Another data set concerns gram-positive bacteria. The note with it: cited from earlier work.
The subject of a further data set is CCK-B receptors. The conditions noted are these: cited from earlier work.
For the next data set, the system named is CCK-A receptors. The note with it: cited from earlier work.
For another data set, the system named is stomach gastrin receptor. The conditions noted are these: cited from earlier work.
For data set [1] the following is noted: crude rat brain synaptosomal fraction (title of cited paper); cited from earlier work.

One may read the IC50 as the concentration that gives 50% inhibition. A high value points to weaker potency in that assay.

In the case of `c1cnc2c(c1)ccc1cccnc12` [o-phenanthroline], the “effect on the 125I-CCK receptor binding assay” value at Pancreatic CCK Receptor is “no effect”. In the case of `CC1=C\[C@@H](O)CC(=O)Cc2nc(co2)C(=O)N2CCC=C2C(=O)O[C@H](C(C)C)[C@H](C)/C=C/C(=O)NC\C=C\1` [Virginiamycin M1], the IC50 on Pancreatic CCK Receptor was > 100 µM. For the same compound, the “antibacterial specificity and action” value with gram-positive bacteria was “generally specific for gram-positive bacteria and prevent cell multiplication”. For `CC1=C\C=C\C(=O)Cc2nc(co2)C(=O)N2CCC=C2C(=O)O[C@H](C(C)C)[C@H](C)/C=C/C(=O)NC\C=C\1` [Compound III], the IC50 at Pancreatic CCK Receptor was > 10 µM. Still for that read-out and setting: the same measure for `CC1=C\C=C\[C@H](O)Cc2nc(co2)C(=O)N2CCC=C2C(=O)O[C@H](C(C)C)[C@H](C)/C=C/C(=O)NC\C=C\1` [Compound II]: > 10 µM. With `CSCC[C@H](NC(=O)[C@H](Cc1c[nH]c2ccccc12)NC(=O)CCNC(=O)OC(C)(C)C)C(=O)N[C@@H](CC(=O)O)C(=O)N[C@@H](Cc1ccccc1)C(N)=O` [pentagastrin], the “affinity for CCK-B receptors” value in the data set on CCK-B receptors is listed as “high affinity”. As to `O=S(=O)(F)Cc1ccccc1` [phenylmethane sulfonyl fluoride (PMSF), phenylmethane sulfonyl fluoride], the “effect on the 125I-CCK receptor binding assay” value on Pancreatic CCK Receptor is on record as “no effect”. As for gastrin, in the data set on CCK-A receptors, the “affinity for CCK-A receptors” value is given as “lower affinity”. As to `CSCC[C@H](NC(=O)[C@@H](N)Cc1c[nH]c2ccccc12)C(=O)N[C@@H](CC(=O)O)C(=O)N[C@@H](Cc1ccccc1)C(N)=O` [CCK-4], the “affinity for CCK-A receptors” value in the data set on CCK-A receptors is on record as “lower affinity”. Moreover, the “affinity for CCK-B receptors” value with CCK-B receptors is “high affinity”. In addition, the “potency at stomach gastrin receptor” value in the data set with stomach gastrin receptor was “minimum fully potent CCK sequence”.

Take `CC1=C\C=C\[C@@H](O)Cc2nc(co2)C(=O)N2CCC=C2C(=O)O[C@H](C(C)C)[C@H](C)/C=C/C(=O)NC\C=C\1` [Compound I]: the IC50 at Pancreatic CCK Receptor is > 10 µM. For the compound `CSCC[C@H](NC(=O)[C@H](Cc1ccc(OS(=O)(=O)O)cc1)NC(=O)[C@@H](N)CC(=O)O)C(=O)NCC(=O)N[C@@H](Cc1c[nH]c2ccccc12)C(=O)N[C@@H](CCSC)C(=O)N[C@@H](CC(=O)O)C(=O)N[C@@H](Cc1ccccc1)C(N)=O` [CCK-8s, H-Asp-Tyr(SO3 H)-Met-Gly-Trp-Met-Asp-Phe-NH2], in data set [1], the half-life result is “less than 1 hour”. In the data set on CCK-A receptors, the “affinity for CCK-A receptors” value is reported as “high affinity”. Besides, in the data set on CCK-B receptors, the “affinity for CCK-B receptors” value is given as “high affinity”.

For the compound `CSCC[C@H](NC(=O)[C@H](Cc1ccc(O)cc1)NC(=O)[C@@H](N)CC(=O)O)C(=O)NCC(=O)N[C@@H](Cc1c[nH]c2ccccc12)C(=O)N[C@@H](CCSC)C(=O)N[C@@H](CC(=O)O)C(=O)N[C@@H](Cc1ccccc1)C(N)=O` [CCK-8d], the “affinity for CCK-A receptors” value in the data set with CCK-A receptors was “lower affinity”.
